How the values were obtained:
primate [1] = settings: Sub-acute repeat dose toxicity; Oral; Gavage/Intubation; dose end: 10 day; group: systemic; systemic / clinical chemistry / [other] / [other] + systemic / clinical chemistry / apolipoprotein a1 / apolipoprotein a1 + systemic / …
rat [2] = settings: Sub-acute repeat dose toxicity; Oral; Gavage/Intubation; dose end: 10 day; group: systemic; systemic / hematology / erythrocyte (rbc) count differential / erythrocyte (rbc) + systemic / hematology / hematocrit (hct) / hematocrit (…
rabbit = settings: Sub-acute repeat dose toxicity; Oral; Gavage/Intubation; dose end: 4 day; group: systemic; systemic / hematology / erythrocyte (rbc) count differential / erythrocyte (rbc) + systemic / hematology / hematocrit (hct) / hematocrit (…
rat [3] = settings: Sub-acute repeat dose toxicity, Oral, Gavage/Intubation, dose end: 34 day, group: systemic
primate [4] = settings: Sub-acute repeat dose toxicity, Oral, Gavage/Intubation, dose end: 28 day, group: systemic
mouse [5] = settings: Subchronic oral toxicity in rodents, b6c3f1, Feed, dose end: 14 week, group: systemic
mouse [6] = settings: Carcinogenicity; b6c3f1; Oral; Feed; dose end: 105 week; group: systemic; systemic / in life observation / body weight / body weight + systemic / pathology microscopic / kidney / mineralization + systemic / …
rat [7] = settings: Carcinogenicity, fischer, Oral, Feed, dose end: 105 week, group: systemic
rat [8] = settings: Subchronic oral toxicity in rodents, fischer, Feed, dose end: 13 week, group: systemic
mouse [9] = settings: Subchronic oral toxicity in rodents, b6c3f1, Feed, dose end: 13 week, group: systemic
dog = settings: Chronic toxicity, beagle, Oral, Feed, dose end: 1 year, group: systemic
rat [10] = settings: Combined chronic toxicity/carcinogenicity; fischer; Oral; Feed; dose end: 2 year; group: systemic; systemic / pathology microscopic / kidney / dilatation + systemic / pathology microscopic / kidney / hyperplasia + systemic / pathology …
mouse [11] = settings: Carcinogenicity, b6c3f1, Oral, Feed, dose end: 24 month, group: systemic
[12] = systemic / clinical chemistry / [other] / [other] + systemic / clinical chemistry / globulins / globulins + systemic / clinical chemistry / …
[13] = systemic / in life observation / body weight / body weight + systemic / clinical chemistry / [other] / [other] + systemic / clinical …
[14] = systemic / in life observation / clinical signs / pulse/pressure + systemic / clinical chemistry / albumin / albumin + systemic / hematology…
[15] = systemic / in life observation / clinical signs / pulse/pressure + systemic / in life observation / clinical signs / arrhythmia + systemic…
[16] = systemic / organ weight / liver / absolute + systemic / organ weight / liver / relative to body weight + systemic / pathology microscopic / …
[17] = systemic / pathology microscopic / kidney / hyperplasia + systemic / pathology microscopic / liver / hyperplasia + systemic / pathology …
[18] = systemic / clinical chemistry / alanine aminotransferase (alt/sgpt) / alanine aminotransferase (alt/sgpt) + systemic / clinical chemistry / …
[19] = systemic / organ weight / brain / relative to body weight + systemic / organ weight / kidney / absolute
[20] = systemic / organ weight / brain / relative to body weight + systemic / organ weight / kidney / absolute + systemic / organ weight / kidney…
[21] = systemic / clinical chemistry / alkaline phosphatase (alp/alk) / alkaline phosphatase (alp/alk) + systemic / pathology microscopic / kidney…
[22] = systemic / organ weight / heart / relative to body weight + systemic / organ weight / kidney / absolute + systemic / organ weight / kidney…

## CC(C)c1nnc2ccc(-c3ocnc3-c3cc(F)ccc3F)cn12
Primate [1]
  LEL: 1000 mg/kg/day
  LOAEL: > 1000 mg/kg/day
  NEL: 300 mg/kg/day
  NOAEL: ≥ 1000 mg/kg/day
Rat [2]
  LOAEL: > 2000 mg/kg/day
  NEL: < 250 mg/kg/day
  NOAEL: ≥ 2000 mg/kg/day
rabbit
  LEL: 40 mg/kg/day
  LOAEL: > 80 mg/kg/day
  NEL: 20 mg/kg/day
  NOAEL: ≥ 80 mg/kg/day
Rat [3]; [12]
  LEL: 100 mg/kg/day
  NEL: < 100 mg/kg/day
Rat [3]; [13]
  LOAEL: > 2000 mg/kg/day
  NOAEL: ≥ 2000 mg/kg/day
Primate [4]; [14]
  LEL: 30 mg/kg/day
  NEL: < 30 mg/kg/day
Primate [4]; [15]
  LOAEL: > 500 mg/kg/day
  NOAEL: ≥ 500 mg/kg/day

## O=C(c1ccccc1)c1ccccc1 [Benzophenone]
Mouse [5]; systemic / clinical chemistry / bile acids / bile acids + systemic / clinical chemistry / sorbitol dehydrogenase / sorbitol dehydrogenase + …
  LOAEL: 404 mg/kg/day
Mouse [5]; [16]
  LEL: 200 mg/kg/day
  NEL: < 200 mg/kg/day
Mouse [6]
  LEL: 35 mg/kg/day
  LOAEL: 70 mg/kg/day
  NEL: < 35 mg/kg/day
Rat [7]; systemic / in life observation / body weight / body weight + systemic / pathology microscopic / kidney / hyperplasia + systemic / pathology …
  LOAEL: 30 mg/kg/day
Rat [7]; [17]
  LEL: 15 mg/kg/day
  NEL: < 15 mg/kg/day

## Cc1ccn2nc(S(=O)(=O)Nc3c(F)cccc3F)nc2n1 [Flumetsulam]
Rat [8]; [18]
  LOAEL: 1000 mg/kg/day
  NOAEL: 250 mg/kg/day
Rat [8]; systemic / hematology / erythrocyte (rbc) count differential / erythrocyte (rbc) + systemic / hematology / hemoglobin (hgb) / hemoglobin (…
  NEL: 2500 mg/kg/day
Mouse [9]; [19]
  NEL: 1000 mg/kg/day
  NOAEL: 1000 mg/kg/day
Mouse [9]; [20]
  LEL: 5000 mg/kg/day
  LOAEL: 5000 mg/kg/day
dog; [21]
  LOAEL: 500 mg/kg/day
  NEL: 20 mg/kg/day
  NOAEL: 100 mg/kg/day
dog; systemic / organ weight / pituitary gland / relative to body weight
  LEL: 100 mg/kg/day
Rat [10]
  LEL: 1000 mg/kg/day
  LOAEL: 1000 mg/kg/day
  NEL: 500 mg/kg/day
  NOAEL: 500 mg/kg/day
Mouse [11]; systemic / organ weight / heart / relative to body weight
  NEL: 500 mg/kg/day
Mouse [11]; [22]
  LEL: 1000 mg/kg/day
  LOAEL: > 1000 mg/kg/day
  NOAEL: ≥ 1000 mg/kg/day

Reference: EPA's ToxRefDB 2
